{"source": "patent US10696686B2", "about": "“Herbicidally active (alkynyl-phenyl)-substituted cyclic dione compounds and derivatives thereof” (Syngenta Limited, priority 2013, dated 2020)", "experiment_in_all_cases": "Biological Example 3 glasshouse assay using various adjuvant systems, post-emergence foliar spray", "type_in_all_cases": "in vivo", "key": {"[1]": {"test_system": "Brachiaria decumbens (BRADC)", "settings": "8 g/ha", "procedure": "(§1) Post-emergence foliar spray application, 200 L/ha, usually one or two replicates for the weeds (depending on application rate), and two replicates for soybean.\n(§2) Standard warm conditions (tropical), in glasshouse. Specifically, the glasshouse bay conditions are 24° C./18° C. day/night; 16/8 hours light/dark; 65% humidity.\n(§3) The herbicidal application takes place at the following growth stages for plants which include inter alia one or more of the following plants (usually the herbicidal application takes place on at least the following plants: DIGSA, ELEIN, SETFA, ZEAMX, GLXMA Nikko, and GLXMA TMG133, and often also either BRADC or BRAPP):\nBrachiaria decumbens (BRADC)—growth stage (GS) 12 or 13 (or GS 12)—or, if BRADC is not used, then usually Brachiaria platyphylla (BRAPP)—growth stage 12 or 13\n(§4) Each test compound is applied with one of the following adjuvant systems (all percentages are final concentrations in the aqueous spray mixture):\n(§5) Adjuvant system 1: 0.5% v/v Adigor™ *, 1.0% v/v AMS (ammonium sulphate) and 12.5% v/v IPA (isopropyl alcohol).\n(§6) Adjuvant system 1A: 0.5% v/v Adigor™ * and 12.5% v/v IPA (isopropyl alcohol).\n(§7) CAS Registry no. 166412-78-8), and is usually available from BASF. “Isononyl” in this context is thought to mean a mixture of two or more branched isomers of C9H19. […] A visual assessment of the % herbicidal damage is made 7 and 14 Days After herbicide Application (DAA) (or, in a minority of cases, 7 and 15 DAA), and the results are recorded as % visual herbicidal damage where 0%=no damage to plants and 100%=plant totally killed. *** Adjuvant system=either Adigor™ or Hexamoll DINCH™ or tris-(2-ethylhexyl) phosphate each at 0.5% v/v, and 12.5% v/v IPA (isopropyl alcohol), and 1.0% v/v AMS (ammonium sulphate); or 0.5% v/v Adigor™ and 12.5% v/v IPA (isopropyl alcohol); all percentages are final concentrations in the aqueous spray mixture. […]"}, "[2]": {"test_system": "Glycine max (GLXMA, soybean) cultivar Nikko", "settings": "for percentage phytotoxicity on Glycine max (GLXMA, soybean) cultivar Nikko: post-emergence", "procedure": "as §1, §2, §3\nGlycine max (GLXMA, soybean) cultivar “Nikko”—growth stage: 1st trifoliate\nas §4, §5, §6\n(§8) CAS Registry no. 166412-78-8), and is usually available from BASF. “Isononyl” in this context is thought to mean a mixture of two or more branched isomers of C9H19. Method: Seeds of the weed (including volunteer) plants, typically including inter alia Digitaria sanguinalis (DIGSA), Eleusine indica (ELEIN), Setaria faberi (SETFA), Zea mays (ZEAMX, corn), and sometimes also [either Brachiaria decumbens (BRADC) or Brachiaria platyphylla (BRAPP)], are sown in seed trays (troughs) containing clay loam soil (pH 7.0, 2.2% organic matter, “Trough Mix A”); and soybean seed is sown in pots containing the same soil with 3 soybean seedlings per pot. The plants are sprayed with the test herbicide when they reach the growth stages mentioned above. The test herbicidal solutions are prepared by mixing the appropriate aliquots of the test substance(s) and one of the adjuvant systems indicated above *** in deionised water to give the desired treatment concentration. The herbicidal application is made as a foliar spray, using a tracksprayer. Following the herbicidal application, the plants are watered twice per day for the duration of the test. A visual assessment of the % herbicidal damage is made 7 and 14 Days After herbicide Application (DAA) (or, in a minority of cases, 7 and 15 DAA), and the results are recorded as % visual herbicidal damage where 0%=no damage to plants and 100%=plant totally killed. *** Adjuvant system=either Adigor™ or Hexamoll DINCH™ or tris-(2-ethylhexyl) phosphate each at 0.5% v/v, and 12.5% v/v IPA (isopropyl alcohol), and 1.0% v/v AMS (ammonium sulphate); or 0.5% v/v Adigor™ and 12.5% v/v IPA (isopropyl alcohol); all percentages are final concentrations in the aqueous spray mixture.\n(§9) Compounds A8, A11 and A17, which are compounds of formula (I) according to the present invention, were tested in a test method substantially as described above.\n(§10) Compound A8 was tested using the 0.5% v/v Adigor™+12.5% v/v IPA adjuvant system. Compounds A11 and A17 were tested using the 0.5% v/v Adigor™+1.0% v/v AMS+12.5% v/v IPA adjuvant system.\nThe percentages of herbicidal damage/plant control, at 14 Days After herbicide Application (DAA) (or, in a minority of cases, at 15 DAA), for the Compounds tested and for some of the plants tested, were in the following percentage ranges. At least for Compounds A8 and A17, the phytotoxicity results shown herein are the average of 2 repetitions (for the grassy weeds, corn and soybean). […] Control of Zea mays (ZEAMX, Corn), a Warm-Climate (Warm-Season) Grassy Plant Zea mays (ZEAMX, maize, corn) is often present as a “volunteer” weed (“volunteer” corn) in fields where it was planted as a crop in preceding growing season(s) and where the present field crop is not corn. […]"}, "Eleusine indica (ELEIN)": {"test_system": "Eleusine indica (ELEIN)", "settings": "8 g/ha", "procedure": "as §1, §2, §3\nEleusine indica (ELEIN)—growth stage 12 or 13\nas §4, §5, §6\n(§11) CAS Registry no. […] A visual assessment of the % herbicidal damage is made 7 and 14 Days After herbicide Application (DAA) (or, in a minority of cases, 7 and 15 DAA), and the results are recorded as % visual herbicidal damage where 0%=no damage to plants and 100%=plant totally killed. *** Adjuvant system=either Adigor™ or Hexamoll DINCH™ or tris-(2-ethylhexyl) phosphate each at 0.5% v/v, and 12.5% v/v IPA (isopropyl alcohol), and 1.0% v/v AMS (ammonium sulphate); or 0.5% v/v Adigor™ and 12.5% v/v IPA (isopropyl alcohol); all percentages are final concentrations in the aqueous spray mixture. […]\n(§12) The percentages of herbicidal damage/plant control, at 14 Days After herbicide Application (DAA) (or, in a minority of cases, at 15 DAA), for the Compounds tested and for some of the plants tested, were in the following percentage ranges. […] Phytotoxicity on Glycine max (GLXMA, Soybean) Cultivar “TMG133” Glycine max (GLXMA, soybean) cultivar “TMG133” is Roundup Ready™ glyphosate-tolerant soybean cultivar TMG133, and is typically available from Monsanto in Brazil."}, "Setaria faberi (SETFA)": {"test_system": "Setaria faberi (SETFA)", "settings": "8 g/ha", "procedure": "as §1, §2, §3\nSetaria faberi (SETFA)—growth stage 12 or 13\nas §4, §5, §6, §11, §12"}, "[3]": {"test_system": "Glycine max (GLXMA, soybean) cultivar TMG133", "procedure": "as §1, §2, §3\nGlycine max (GLXMA, soybean) cultivar “TMG133”—which is Roundup Ready™ glyphosate-tolerant soybean cultivar TMG133 (typically available from Monsanto in Brazil)—growth stage: 1st trifoliate.\nas §4, §5, §6, §8, §9, §10\nThe percentages of herbicidal damage/plant control, at 14 Days After herbicide Application (DAA) (or, in a minority of cases, at 15 DAA), for the Compounds tested and for some of the plants tested, were in the following percentage ranges. […]"}, "[4]": {"test_system": "Zea mays (ZEAMX, maize, corn) cultivar Garland", "settings": "8 g/ha", "procedure": "as §1, §2, §3\nZea mays (ZEAMX, maize/corn, e.g. can occur as volunteer corn) cultivar “Garland”—growth stage 12 or 13\nas §4, §5, §6, §7"}, "[5]": {"settings": "14 DAA, adjuvant 0.5% v/v Adigor + 12.5% v/v IPA"}, "[6]": {"settings": "120 g/ha, 14 DAA, adjuvant 0.5% v/v Adigor + 12.5% v/v IPA"}, "[7]": {"settings": "14 DAA (A11: 14 or 15 DAA), adjuvant 0.5% v/v Adigor + 1.0% v/v AMS + 12.5% v/v IPA"}, "[8]": {"settings": "120 g/ha, 14 DAA (A11: 14 or 15 DAA), adjuvant 0.5% v/v Adigor + 1.0% v/v AMS + 12.5% v/v IPA"}, "[9]": {"settings": "240 g/ha, 14 DAA (A11: 14 or 15 DAA), adjuvant 0.5% v/v Adigor + 1.0% v/v AMS + 12.5% v/v IPA"}}, "data": [{"smiles": "C#CCC1CC(=O)C(c2c(F)cc(C#CC)cc2OC)C1=O", "note": "(stereo not drawn) [Compound A8, 2-(2-fluoro-6-methoxy-4-prop-1-ynyl-phenyl)-4-prop-2-ynyl-cyclopentane-1,3-dione]", "values": [{"measurement": "percentage control of (phytotoxicity on) Brachiaria decumbens (BRADC)", "setting": "[1]; [5]", "value": 0, "unit": "%"}, {"measurement": "percentage phytotoxicity on Glycine max (GLXMA, soybean) cultivar Nikko", "setting": "[2]; [6]", "value": 30, "unit": "%"}, {"measurement": "phytotoxicity on soybean (in words)", "setting": "[2]; see Biological Example 3 (soybean cultivars Nikko and TMG133)", "value": "low phytotoxicity"}, {"measurement": "percentage control of (phytotoxicity on) Eleusine indica (ELEIN)", "setting": "Eleusine indica (ELEIN); [5]", "value": 40, "unit": "%"}, {"measurement": "percentage control of (phytotoxicity on) Setaria faberi (SETFA)", "setting": "Setaria faberi (SETFA); [5]", "value": 75, "unit": "%"}, {"measurement": "percentage phytotoxicity on Glycine max (GLXMA, soybean) cultivar TMG133", "setting": "[3]; [6]", "value": 17.5, "unit": "%"}, {"measurement": "percentage control of (phytotoxicity on) Zea mays (ZEAMX, maize, corn)", "setting": "[4]; [5]", "value": 65, "unit": "%"}]}, {"smiles": "CC#Cc1cc(F)c(C2C(=O)CC(CCSC)CC2=O)c(OC)c1", "note": "(stereo not drawn) [Compound A11]", "values": [{"measurement": "percentage control of (phytotoxicity on) Brachiaria decumbens (BRADC)", "setting": "[1]; [7]", "value": 0, "unit": "%"}, {"measurement": "percentage phytotoxicity on Glycine max (GLXMA, soybean) cultivar Nikko", "setting": "[2]; [8]", "value": 5, "unit": "%"}, {"measurement": "percentage phytotoxicity on Glycine max (GLXMA, soybean) cultivar Nikko", "setting": "[2]; [9]", "value": 5, "unit": "%"}, {"measurement": "percentage control of Eleusine indica (ELEIN)", "setting": "Eleusine indica (ELEIN); [7]", "value": 0, "unit": "%"}, {"measurement": "percentage control of Setaria faberi (SETFA)", "setting": "Setaria faberi (SETFA); [7]", "value": 0, "unit": "%"}, {"measurement": "percentage phytotoxicity on Glycine max (GLXMA, soybean) cultivar TMG133", "setting": "[3]; [8]", "value": 5, "unit": "%"}, {"measurement": "percentage phytotoxicity on Glycine max (GLXMA, soybean) cultivar TMG133", "setting": "[3]; [9]", "value": 5, "unit": "%"}, {"measurement": "percentage control of Zea mays (ZEAMX, maize, corn)", "setting": "[4]; [7]", "value": 0, "unit": "%"}]}]}
